# Measurements reported in paper PMC8151276, “An Integrated Approach toward NanoBRET Tracers for Analysis of GPCR Ligand Engagement” (Molecules, 2021).
# What was measured:
# [1] = target: T1, MCHR2 (Homo sapiens, UniProt Q969V1); test: NanoBRET screen HiBiT-MCHR2 in HEK293; format: binding
# T1 construct: purchased Promega (in-house HiBiT-GPCR construct library, NanoBRET)
# Protocol: (§1) Each tracer candidate was screened across the entire library of HiBiT-GPCR constructs using NanoBRET as the detection modality. As depicted in Figure 4A, the specificity of interactions was evaluated through decrease in BRET due to competitive displacement of a bound tracer by excess parental compound. Each tracer was analyzed for binding to each HiBiT-GPCR fusion in the absence and in the presence of competing parental compound. Briefly, HEK293 cells were transfected with HiBiT-GPCR constructs diluted into promoterless DNA to reduce expression and maximize translocation to the cell surface. Each tracer candidate was then screened at concentrations of 1 μM and 0.1 μM across cells expressing these fusions. Cells were treated for 1.5 h with tracer either alone or in the presence of 20 μM competing parental compound (i.e., control). BRET was measured upon addition of purified LgBiT and subsequent complementation with HiBiT genetically fused to a GPCR. The specificity of interactions was assessed through a decrease in BRET signal due to competitive displacement of the bound tracer. To further gauge the robustness of these interactions, the fold response over the control (i.e., BRETtracer/BRETcontrol) was calculated. We chose a 1.5-fold response, which translates to ≥7-fold signal over noise as the minimal threshold required to score an interaction as positive.
# (§2) HiBiT-GPCR DNA constructs were diluted in 10 mM Tris pH 8 to a final concentration of 0.01 μg/μL, arrayed in 96-well plates and stored at −20 °C. For transfection, HEK293 cells were suspended in Opti-MEM (without phenol red) supplemented with 2% fetal bovine serum (Seradigm) and 100 units/mL penicillin–streptomycin (Gibco) at a final concentration of 220,000 cells/mL and dispensed into white 96-well plates at 90 μL/well. Subsequent transfections and screens were carried using an Agilent Bravo Automated Liquid Handling Platform. First, the 96-well HiBiT DNA arrays were diluted 25-fold in Opti-MEM (without serum or phenol red) to a final concentration of 0.0004 μg/μL and 20 μL of the diluted DNAs were transferred into new 96-well plates. Next, promoterless carrier DNA (1 μg/μL) was diluted 25-fold (0.04 μg/μL) and then dispensed into the diluted arrays at 20 μL/well. Following brief mixing, Viafect transfection reagent (Promega) diluted 16-fold into Opti-MEM was dispensed into the plates at 40 μL/well. After mixing by pipetting, plates were incubated for 10 min on the pipetting station deck. The DNA-transfection reagent complexes were then added to plates containing cells. To facilitate the screen, 10 μL of DNA-transfection reagent complexes were added in duplicates to the top 4 and bottom 4 rows, resulting in two identical 48-well arrays per plate. Plates with transfected cells were incubated for 18–20 h at 37 °C/5% CO2. A screen of each tracer across the entire library using two different concentrations requires duplicate plates of transfected cells. Depending on the number of tracers being screened, transfections can be scaled up using the same ratios. The next day, for each tracer, four 20× screening solutions in tracer dilution buffer (Promega) were prepared: two duplicates at final concentration of 20 μM and two duplicates at a final concentration of 2 μM. […] The four resulting solutions were diluted 4-fold in Opti-MEM without serum or phenol red to generate 5× solutions (5 µM and 0.5 µM tracer +/− 100 μM competing compound). To screen the library, a BioTek MultiFlo FX liquid dispenser was used to dispense 22.5 µL of tracer solution to the top 4 rows and 22.5 µL tracer + competing compound solution to the 4 bottom rows. Plates were briefly mixed on an orbital shaker and incubated for 1.5 h at room temperature. […] Plates were briefly mixed on an orbital shaker and incubated for 15 min to allow complementation.
# [2] = target: T2, CNR2 (Homo sapiens, UniProt P34972); test: NanoBRET screen HiBiT-CNR2 in HEK293; format: binding
# T2 construct: purchased Promega (in-house HiBiT-GPCR construct library, NanoBRET)
# Protocol: as §1, §2
# T2 sequence (P34972 whole entry): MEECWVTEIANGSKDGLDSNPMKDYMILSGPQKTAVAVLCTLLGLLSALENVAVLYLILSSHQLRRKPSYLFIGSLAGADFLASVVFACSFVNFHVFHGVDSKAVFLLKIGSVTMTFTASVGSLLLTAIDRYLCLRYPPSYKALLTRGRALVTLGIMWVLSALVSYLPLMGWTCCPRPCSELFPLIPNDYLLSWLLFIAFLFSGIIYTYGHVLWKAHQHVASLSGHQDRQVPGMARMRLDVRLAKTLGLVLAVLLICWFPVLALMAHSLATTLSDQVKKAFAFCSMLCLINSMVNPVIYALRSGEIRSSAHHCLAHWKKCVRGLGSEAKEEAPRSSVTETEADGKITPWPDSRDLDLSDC
# T1 sequence (Q969V1 whole entry): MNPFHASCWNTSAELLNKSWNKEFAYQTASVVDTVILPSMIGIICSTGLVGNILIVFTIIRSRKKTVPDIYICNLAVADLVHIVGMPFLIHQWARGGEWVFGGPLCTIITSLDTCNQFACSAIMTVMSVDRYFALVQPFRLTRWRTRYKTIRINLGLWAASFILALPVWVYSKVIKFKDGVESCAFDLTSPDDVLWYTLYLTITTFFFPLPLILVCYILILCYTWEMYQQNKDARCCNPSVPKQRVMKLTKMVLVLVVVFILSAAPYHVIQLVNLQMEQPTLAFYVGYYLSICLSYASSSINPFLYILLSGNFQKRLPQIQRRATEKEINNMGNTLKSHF
Compound,"NanoBRET Fold Response ([1]; MCHR2, tracer 0.1μM)","NanoBRET Fold Response ([1]; MCHR2, tracer 1μM)","NanoBRET Fold Response ([2]; CNR2, tracer 0.1μM)","NanoBRET Fold Response ([2]; CNR2, tracer 1μM)",also measured
O=C(CCc1ccc2n1[B-](F)(F)[N+]1=C(c3ccc[nH]3)C=CC1=C2)NCc1ccc(C(=O)NCCOCCC(=O)N[C@@H]2CC[C@@]3(O)[C@H]4Cc5ccc(O)c6c5[C@@]3(CCN4CC3CC3)[C@H]2O6)cc1 [Naltrexone-3-NB590],1.10,1.01,0.92,0.91,
CN1CCN(C2=Nc3cc(Cl)ccc3N(CC(=O)NCCOCCOCCOCCOCCNC(=O)CCc3ccc4n3[B-](F)(F)[N+]3=C(c5ccc[nH]5)C=CC3=C4)c3ccccc32)CC1 [Clozapine-c-2-NB590],,,,,"NanoBRET Fold Response ([1]; MCHR2, 0.1μM tracer): 1.06; NanoBRET Fold Response ([1]; MCHR2, 1μM tracer): 1.01; NanoBRET Fold Response ([2]; CNR2, 0.1μM tracer): 0.96; NanoBRET Fold Response ([2]; CNR2, 1μM tracer): 1.13"
O=C(CCOCCOCCOCCOCCNC(=O)CCc1ccc2n1[B-](F)(F)[N+]1=C(c3ccc[nH]3)C=CC1=C2)NCCCN1CCN(C2=Nc3cc(Cl)ccc3Nc3ccccc32)CC1 [Clozapine-a-2-NB590],,,,,"NanoBRET Fold Response ([1]; MCHR2, 0.1μM tracer): 0.98; NanoBRET Fold Response ([1]; MCHR2, 1μM tracer): 1.37; NanoBRET Fold Response ([2]; CNR2, 0.1μM tracer): 1.06; NanoBRET Fold Response ([2]; CNR2, 1μM tracer): 1.19"
CCOC(=O)c1cc(C#N)c(N2CCC(C(=O)NS(=O)(=O)Cc3ccccc3/C=C/C(=O)NCCNC(=O)CCc3ccc4n3[B-](F)(F)[N+]3=C(c5ccc[nH]5)C=CC3=C4)CC2)nc1C [AZD1283-1-NB590],,,,,"NanoBRET Fold Response ([1]; MCHR2, 0.1μM): 1.04; NanoBRET Fold Response ([1]; MCHR2, 1μM): 1.06; NanoBRET Fold Response ([2]; CNR2, 0.1μM): 1.04; NanoBRET Fold Response ([2]; CNR2, 1μM): 0.91"
COc1ccc2[nH]c(-c3ccc(CNC(=O)CCOCCOCCOCCOCCNC(=O)CCc4ccc5n4[B-](F)(F)[N+]4=C(c6ccc[nH]6)C=CC4=C5)cc3)c(CCNC(C)=O)c2n1 [AzomelatoninICO9-2-NB590],,,,,NanoBRET Fold Response ([1]; 0.1μM tracer): 1.29; NanoBRET Fold Response ([1]; 1μM tracer): 1.43; NanoBRET Fold Response ([2]; 0.1μM tracer): 0.97; NanoBRET Fold Response ([2]; 1μM tracer): 1.06
CCCn1c(=O)c2[nH]c(-c3ccc(OCC(=O)NCCNC(=O)CCOCCNC(=O)c4ccc(CNC(=O)CCc5ccc6n5[B-](F)(F)[N+]5=C(c7ccc[nH]7)C=CC5=C6)cc4)cc3)nc2n(CCC)c1=O [XAC-3-NB590],0.96,0.97,1.04,1.09,
COc1ccccc1N1CCN(CCCCN2C(=O)c3ccc(CNC(=O)CCOCCNC(=O)c4ccc(CNC(=O)CCc5ccc6n5[B-](F)(F)[N+]5=C(c7ccc[nH]7)C=CC5=C6)cc4)cc3C2=O)CC1 [NAN-190-3-NB590],1.09,0.72,1.09,1.15,
O=C(CCc1ccc2n1[B-](F)(F)[N+]1=C(c3ccc[nH]3)C=CC1=C2)NCc1ccc(C(=O)NCCOCCOCCNCC(O)COc2cccc3ccccc23)cc1 (centres unmarked) [Propranolol-3-NB590],,,,,"NanoBRET Fold Response ([1]; MCHR2, 0.1μM): 0.91; NanoBRET Fold Response ([1]; MCHR2, 1μM): 1.02; NanoBRET Fold Response ([2]; CNR2, 0.1μM): 0.95; NanoBRET Fold Response ([2]; CNR2, 1μM): 1.01"
COc1ccc2c(n1)c(CCNC(C)=O)cn2CCNC(=O)CCc1ccc2n1[B-](F)(F)[N+]1=C(c3ccc[nH]3)C=CC1=C2 [Azamelatonin-1-NB590],,,,,NanoBRET Fold Response ([1]; 0.1μM tracer): 1.45; NanoBRET Fold Response ([1]; 1μM tracer): 0.86; NanoBRET Fold Response ([2]; 0.1μM tracer): 0.98; NanoBRET Fold Response ([2]; 1μM tracer): 1.01
O=C(CCOCCOCCOCCOCCNC(=O)CCc1ccc2n1[B-](F)(F)[N+]1=C(c3ccc[nH]3)C=CC1=C2)NCCCN1CCN(C2=Nc3ccccc3Oc3ccc(Cl)cc32)CC1 [Loxapine-a-2-NB590],1.02,1.12,0.33,1.25,
COc1ccccc1N1CCN(CCCCN2C(=O)c3ccc(CNC(=O)CCOCCOCCOCCOCCNC(=O)CCc4ccc5n4[B-](F)(F)[N+]4=C(c6ccc[nH]6)C=CC4=C5)cc3C2=O)CC1 [NAN-190-2-NB590],0.99,0.94,0.81,,
CC(C)N(CC[C@H](c1ccccc1)c1cc(CCNC(=O)c2ccc(CNC(=O)CCc3ccc4n3[B-](F)(F)[N+]3=C(c5ccc[nH]5)C=CC3=C4)cc2)ccc1O)C(C)C [Tolterodine-BZ-NB590],0.93,1.02,,0.25,
O=C(CCc1ccc2n1[B-](F)(F)[N+]1=C(c3ccc[nH]3)C=CC1=C2)NCCOCCOCCNC(=O)OCCOCCN1CCN(C2=Nc3ccccc3Sc3ccccc32)CC1 [Quetiapine-a-2-NB590],1.03,0.74,1.07,1.29,
CN1CCN(C2=Nc3cc(Cl)ccc3Nc3ccc(CNC(=O)CCOCCOCCOCCOCCNC(=O)CCc4ccc5n4[B-](F)(F)[N+]4=C(c6ccc[nH]6)C=CC4=C5)cc32)CC1 [Clozapine-b-2-NB590],,,,,"NanoBRET Fold Response ([1]; MCHR2, 0.1μM tracer): 1.00; NanoBRET Fold Response ([1]; MCHR2, 1μM tracer): 0.97; NanoBRET Fold Response ([2]; CNR2, 0.1μM tracer): 1.05"
CC(C)N(CC[C@H](c1ccccc1)c1cc(CCNC(=O)CCOCCOCCOCCOCCNC(=O)CCc2ccc3n2[B-](F)(F)[N+]2=C(c4ccc[nH]4)C=CC2=C3)ccc1O)C(C)C [Tolterodine-2-NB590],1.59,1.08,0.94,1.11,
CN(C)CCC=C1c2ccccc2CCc2ccc(C(=O)NCCNC(=O)CCOCCOCCOCCOCCNC(=O)CCc3ccc4n3[B-](F)(F)[N+]3=C(c5ccc[nH]5)C=CC3=C4)cc21 [Amitriptyline-a-2-NB590],,,,,NanoBRET Fold Response ([1]; tracer at 0.1μM): 0.97; NanoBRET Fold Response ([1]; tracer at 1μM): 1.01
Cc1cc2c(s1)Nc1ccccc1N=C2N1CCN(CCCNC(=O)CCOCCOCCOCCOCCNC(=O)CCc2ccc3n2[B-](F)(F)[N+]2=C(c4ccc[nH]4)C=CC2=C3)CC1 [Olanzapine-a-2-NB590],0.98,1.01,0.23,1.06,
N#CN=C(NCCCOc1cccc(CN2CCCCC2)c1)NCCNC(=O)CCOCCOCCOCCOCCNC(=O)CCc1ccc2n1[B-](F)(F)[N+]1=C(c3ccc[nH]3)C=CC1=C2 [Aminopotentidine-2-NB590],0.97,1.03,1.00,1.16,
Cc1nc2n(c(=O)c1CCN1CCC(c3noc4cc(F)ccc34)CC1)CCCC2OC(=O)NCCOCCOCCOCCOCCNC(=O)CCc1ccc2n1[B-](F)(F)[N+]1=C(c3ccc[nH]3)C=CC1=C2 (centres unmarked) [Risperidone-2-NB590],0.96,0.97,1.04,1.12,
